Assay results as given in patent publication US10821116B2, “Administration of iloprost as aerosol bolus” (VECTURA GMBH, priority 2011, dated 2020).
“Also recorded” adds a separate entry of the source. Read-outs that look alike come from different tables or passages of the source.

Key:
[1] = cited from earlier work
[2] = test system: patients with pulmonary arterial hypertension; experiment: Clinical pilot study of iloprost bolus inhalation (Example 3); format: in vivo, human
Protocol: A clinical pilot study to evaluate the safety and tolerability of nebulised iloprost administered by bolus inhalation according to the invention was conducted with 4 patients. Eligible were male and female patients with pulmonary arterial hypertension in the age from 18 to 70 years having a mean pulmonary arterial blood pressure (PAP) higher than 25 mm Hg, a pulmonary vascular resistance (PVR) higher than 240 dyn*s*cm^−5, a central venous pressure (CVP) higher than 3 mm Hg, and a pulmonary capillary wedge pressure (PCWP) lower than 12 mm Hg. Excluded were patients with a contraindication for cardiac catheterisation (such as coagulopathy, bleeding disorder, acute infection, severe cardiac dysrhythmia), pregnancy, systemic systolic blood pressure below 110 mm Hg, highly impaired ventricular function with cardiac index below 1.8 L/min*m^2, and known lack of pulmonary vascular reactivity. Patients were monitored by ECG, pulse oxymetry, and non-invasive blood pressure measurement. An intracardiac catheter was introduced into the distal pulmonary artery to measure PAP, CVP, PCWP, and cardiac output. Also measured were the heart rate, systemic arterial pressure (SAP), systemic vascular resistance (SVR), central arterial and venous blood gases. After the initial determination of all parameters the reactivity of the pulmonary vasculature to oxygen (2 to 4 L/min) and nitric oxide (20 ppm) was tested. Subsequently, patients inhaled a single dose of 2.5 μg of nebulised iloprost in two consecutive breaths, using the same inhalation system and iloprost composition as described in Example 1. Haemodynamic parameters and clinical condition of the patients were assessed before and up to 30 minutes after inhalation. In the absence of adverse effects, a second inhalation manoeuvre with 4 consecutive breaths corresponding to a dose 5 μg iloprost was performed, again followed by an observation period of at least 30 minutes.

[3] = test system: patients suffering from pulmonary hypertension (PH); experiment: Iloprost bolus inhalation in six further patients (Example 4); format: in vivo, human; conditions: bolus inhalation as in Example 3
Protocol: Six further patients suffering from pulmonary hypertension (PH) were treated with iloprost bolus inhalation as in Example 3.

[4] = bolus inhalation of 2.5 μg and 5 μg, versus slow inhalation of iloprost

CC#CCC(C)[C@H](O)/C=C/[C@@H]1[C@H]2C/C(=C/CCCC(=O)O)C[C@H]2C[C@H]1O (stereo partly drawn) [iloprost, 5-{(E) -(1S,5S,6R,7R)-7-hydroxy-6[(E)-(3S, 4RS)-3-hydroxy-4-methyl-1-octen-6-inyl]-bi-cyclo[3.3.0]octan-3-ylidene}pentanoic acid]
solubility ([1]; acetone): soluble | solubility ([1]; aqueous buffer at pH 3): very slightly soluble | solubility ([1]; aqueous buffer at pH 5): very slightly soluble | solubility ([1]; aqueous buffer at pH 7): soluble | solubility ([1]; aqueous buffer pH 9): sparingly soluble | solubility ([1]; distilled water): very slightly soluble | solubility ([1]; ethanol): soluble | solubility ([1]; ethyl acetate): soluble | solubility ([1]; methanol): soluble | aqueous solubility ([1]; water): rather poor | mean pulmonary arterial pressure (PAP) after bolus inhalation versus baseline, p ([2]; FIG. 1, n=4, Mann-Whitney rank-sum test): < 0.05 | mean systemic arterial pressure (SAP) after bolus inhalation versus baseline, significance ([2]; FIG. 3, n=4, Mann-Whitney rank-sum test): not significant | systemic vascular resistance (SVR) after bolus inhalation versus baseline, significance ([2]; FIG. 4, n=4, Mann-Whitney rank-sum test): not significant | tolerability of the treatment ([2]; bolus inhalation of 2.5 μg (2 breaths) and 5 μg (4 breaths), 4 PAH patients): all patients tolerated the treatment well; also recorded: well-tolerated by patients | systemic side effects (SAP and SVR changes) [2, 4]: comparable to those observed after conventional iloprost treatment | therapeutic pulmonary vascular effects (PAP and PVR changes) [2, 4]: comparable to those observed after conventional iloprost treatment | adverse effects ([3]; six PH patients): no adverse effects were observed other than the SAP and SVR changes which were mild | pulmonary vascular effects ([3]; six PH patients (PAH, iPAH, portopulmonary, CTEPH)): very comparable to those found in Example 3
